Experimental data taken from patent publication US11844771B2, “Methods of treating acute respiratory distress syndrome using colchicine” (INSTITUT DE C[…] MONTREAL, priority 2021, dated 2023).
Marks after values point to notes of the source that are not given here.

Key:
blood leukocytes [1] = assay: Leukocyte immunophenotyping of whole blood by flow cytometry; format: in vivo, rat; conditions: 4 hours after oleic acid
Experimental: (§1) Animal model and colchicine administration. Male Wistar rats weighing 250-300 g were purchased from Charles River, St. Constant, Québec. They were divided in three groups: Sham+placebo (n=8), oleic acid+placebo (n=8) and oleic acid+colchicine (n=8). Oleic acid (150 mg/kg in 0.3 cc) was prepared daily as a mixture with 0.1% bovine serum albumin (BSA) dissolved in distilled water, stored and protected from light at room temperature. Colchicine (1 mg/kg) or distilled water (placebo) was administered by daily gavage (in a volume up to 2 ml/kg) for three days before the induction of the ALI model. On the beginning of the fourth day a last forth dose of colchicine or placebo was administered and rats immediately injected via a jugular vein cannula with oleic acid or with 0.1% BSA. There was no death in the sham group. There was one death in the oleic acid+placebo group 3 hours after injection of oleic acid and prior to any measurement.
Leukocyte immunophenotyping. Using reverse pipetting, 100 μl of whole blood collected on EDTA-coated tubes were incubated with anti-CD32 to prevent FC-mediated non-specific binding according to the manufacturer's instructions. The panel of antibodies as well as the gating strategy were inspired by Barnett-Vanes and al., PLoS One 2016; 11:e0142520.
Briefly, a panel of 11 antibodies (Table 1) was used to identify the neutrophils (CD45^+/SSChi/His48^+), the monocytes (CD45^+/SSC^lo/His48 ^hi or lo/CD43^hi or lo), the B lymphocytes (CD45^+/SSC^lo/CD45R^−B220^+), the T lymphocytes (CD45^+/SSC^lo/CD3^+/CD4^+ or CD8^+), and the natural killer cells (CD45^+/SSC^lo/CD161a^+). The whole blood samples were incubated with the antibodies for 20 minutes at room temperature and the BD Pharm Lyse solution was then added for 10 minutes to lyse the erythrocytes. Samples were stored at 4° C. until analysis by flow cytometry (LSRII BD Biosciences). Accucount (Spherotech) was added to establish a cell count per μl of blood. Data were analyzed on Diva software version 8.0.1 (BD Biosciences).

oleic acid-induced ALI [2] = assay: Oleic acid-induced ALI rat model: lung histology and immunohistology (HPS, MPO, Cit-H3); format: in vivo; conditions: colchicine 1 mg/kg gavage, 4 hours after oleic acid
Experimental: as §1
Lung histology and immunohistology. All histological and immunohistological procedures were performed by the same person blinded to treatment assignment. The left lung was cannulated and perfused with 10% formalin PBS-buffered solution and fixed for 5 days. Tissues were dehydrated by incubating in a series of solutions with an increased ethanol content (70, 95, and 100%), followed by xylene, and embedded in paraffin. The specimens were cut into 6-μm sections, mounted on charged slides and processed with hematoxylin phloxine saffron (HPS) staining.
Immunohistological procedures were initiated by incubating the slides in citrate antigen retrieval (pH 6.0) and endogenous peroxidase blocking (3% hydrogen peroxide). Sections were then blocked by incubating in PBS containing 10% normal goat serum (same species as secondary antibody) for 60 minutes. Slides were incubated with a rabbit polyclonal anti-myeloperoxidase (MPO, Pa5-16672; ThermoFisher, MA USA) for neutrophil detection, with a rabbit polyclonal anti-histone H3 citrulline R2+R8+R17, (Cit-H3, ab5103; ABCAM, Cambridge, United Kingdom) for NETosis and primary antibodies were omitted for negative controls. After washing, sections were incubated with a biotinylated secondary antibody (Vector Laboratories, Burlingame, Calif.) for 30 minutes, washed, then incubated with avidin-biotin complex (ABC kit) and visualized using diaminobenzidine substrate (Vector Laboratories) (27-29).
The HPS slides were scanned to get a picture of the whole left lung (Super coolscan 5000; Nikon, Tokyo Japan). Using a brightfield microscope (BX45, Olympus, Richmond Hill, ON, Canada), images were acquired under 200× magnification on the most damaged/altered regions, acquiring 5 fields per slide for the HPS staining and 10 fields per slide for IHC (MPO and Cit-H3) staining. For the HPS staining, the following analyses were performed: 1) thickness of alveolar membranes, 2) percentage (%) of altered lung tissue, and 3) injury score of the lungs.
To assess the thickness of alveolar membranes, 20 measurements per field were performed (corresponding to 100 measurements per slide) and were expressed as the mean thickness (μm) of the alveolar membranes. A morphometric analysis has been performed to assess the percentage of altered lung tissue over total lung area (excluding trachea, major bronchi, and blood vessels >700 μm diameter). To evaluate lung injury, we used an adapted version of the standardized histology score from the American Thoracic Society Documents (30). […]

oleic acid-induced ALI [3] = assay: Oleic acid-induced ALI rat model: conscious respiratory parameters by whole body plethysmography; format: in vivo; conditions: OA + colchicine 1 mg/kg gavage, 4 hours after oleic acid, mean ± SEM
Experimental: as §1
There was one surgical death in oleic acid+colchicine treatment by laceration of the jugular vein, prior to injection of oleic acid. Oleic acid was administered under ketamine/xylazine anesthesia by slow bolus injection over 30 seconds and the catheter was flushed with 0.3 ml of 0.1% BSA before and after injection. Four hours later, the animals were studied. […] Cytokines measurements were assessed with serum isolated with serum clot activator tubes.

oleic acid-induced ALI [4] = assay: Oleic acid-induced ALI rat model: blood cell counts and biochemistry; format: in vivo; conditions: OA + colchicine 1 mg/kg gavage, 4 hours after oleic acid, mean ± SEM
Experimental: as §1
(§2) There was one surgical death in oleic acid+colchicine treatment by laceration of the jugular vein, prior to injection of oleic acid. Oleic acid was administered under ketamine/xylazine anesthesia by slow bolus injection over 30 seconds and the catheter was flushed with 0.3 ml of 0.1% BSA before and after injection. Four hours later, the animals were studied. Conscious unrestrained respiratory parameters were obtained by whole body plethysmography (Emka technologies). Rats were then anesthetized with 2.5% isoflurance and 100% oxygen (1 L/min) administered with a nose cone/face mask for a duration of 5 minutes before terminal exsanguination. 2 ml of arterial blood was collected through the thoracic aorta into a syringe containing lyophilized heparin for arterial blood gas assessment. The remaining blood was collected into EDTA Lavendar tubes for complete blood count and flow cytometry. Cytokines measurements were assessed with serum isolated with serum clot activator tubes.

oleic acid-induced ALI [5] = assay: Oleic acid-induced ALI rat model: serum cytokine quantification; format: in vivo; conditions: 4 hours after oleic acid
Experimental: as §1, §2
Serum cytokine quantification. Quantitative determination of serum IFN-γ, IL-1β, IL-4, IL-5, IL-6, KC/GRO, IL-10, IL-13, and TNF-α was done using the electrochemiluminescence-based Meso Scale Discovery (MSD) platform (Rockville, Md., USA). Proteins levels were measured in a multiplex assay using the V-PLEX Proinflammatory Panel 2 Rat kit (MSD). Samples were diluted 1:5 in proprietary buffer (MSD) and measured. Data were acquired using a MESO QuickPlex SQ 120 plate reader (MSD) and protein concentrations were determined using the MSD Discovery Workbench 4.0 analysis software. All values reported are between the lower and the upper limits of quantification of the kit. Quantitative determination of serum Cit-H3 was measured by a commercially available ELISA kit (Cayman Chemical, 501620, Ann Arbor, Mich., USA).

oleic acid-induced ALI [6] = assay: Oleic acid-induced ALI rat model: lung edema and arterial blood gas; format: in vivo
Experimental: as §1
as §2, with “2 ml of arterial blood was collected through the thoracic aorta into a syringe containing lyophilized heparin for arterial blood gas assessment. The remaining blood was collected into EDTA Lavendar tubes for complete blood count and flow cytometry.” left out
(§3) The lungs were excised for analysis: the left lung was cannulated and perfusion-fixed with 10% buffered formalin for histology and immunohistochemistry. […] Pulmonary edema was measured from the ratio of total divided by dry weight of the right lung. Total weight, including water, was measured and lung tissue was dried in an oven at 60° C. for 5 days and reweighed as dry weight.

blood leukocytes [7] = assay: In vitro LPS challenge of blood leukocytes from treated rats (CD11b flow cytometry); format: in vivo; conditions: rat whole blood at sacrifice, LPS 500 ng/mL in vitro, 30 minutes
Experimental: as §1
In vitro LPS challenge of blood leukocytes. Whole blood samples collected on EDTA-coated tubes were incubated, or not, with LPS (500 ng/mL) for 30 minutes at 37° C. […] Data were analyzed on Diva software version 8.0.1 (BD Biosciences).

oleic acid-induced ALI [8] = assay: Lung tissue mRNA expression of 27 markers of inflammation and injury by RT-qPCR; format: in vivo; conditions: rat lung, 4 hours after oleic acid; colchicine versus OA control
Experimental: Animal model and colchicine administration. Male Wistar rats weighing 250-300 g were purchased from Charles River, St. Constant, Québec. They were divided in three groups: Sham+placebo (n=8), oleic acid+placebo (n=8) and oleic acid+colchicine (n=8). Oleic acid (150 mg/kg in 0.3 cc) was prepared daily as a mixture with 0.1% bovine serum albumin (BSA) dissolved in distilled water, stored and protected from light at room temperature. Colchicine (1 mg/kg) or distilled water (placebo) was administered by daily gavage (in a volume up to 2 ml/kg) for three days before the induction of the ALI model. […]
as §3
Tissue homogenization, RNA extraction, RT-PCR, and real-time PCR. […] RNA integrity and quantity were assessed using a 2100 Bioanalyzer Instrument (Agilent, Santa Clara, Calif.). […] The geometric mean of housekeeping genes ACTB, GAPDH, and XBP1 was used as an internal control to normalize the variability in expression levels which were analyzed using the 2^−ΔΔCT method. […]

[9] = rat left lung, HPS staining, mean±SEM
[10] = colchicine 1 mg/kg gavage, 4 hours after oleic acid, versus OA control

## COc1cc2c(c(OC)c1OC)-c1ccc(OC)c(=O)cc1[C@@H](NC(C)=O)CC2 [colchicine]
Blood leukocytes [1]; rat blood
  cell surface CD4 and CD8 on respective lymphocyte sub-populations: normalized
  lymphocytes counts on flow cytometry: no change
  neutrophil count on flow cytometry: increase in neutrophils that was significant
Blood leukocytes [1]; unstimulated rat blood
  His48 fluorescence of neutrophils: normalized
Oleic acid-induced ALI [2]; rat left lung, HPS staining
  relative reduction of histological lung injury (injured area) versus oleic acid ALI group: 61%
Oleic acid-induced ALI [2]; [9]
  Mean alveolar wall thickness: 7.8±1.1 μm
  lung injury score (maximum score of 70): 28.7±5.0
  proportion of injured area (altered lung tissue over total lung area): 9.6±3.1%
Oleic acid-induced ALI [2]; rat lung, oleic acid alone 63%
  NETosis (Cit-H3 immunostaining intensity), increase over basal level: 35%
Oleic acid-induced ALI [3]
  Peek expiratory flow: 13.19 ± 1.41
  Peek inspiratory flow: 17.75 ± 2.72 mL/s
Oleic acid-induced ALI [4]; corrected for pH
  Calcium: 1.40 ± 0.01 mmol/L
Oleic acid-induced ALI [4]
  Bicarbonate: 27.6 ± 0.8 mmol/L
  Lactate: 2.4 ± 0.53 mmol/L
  Leukocytes: 4.90 ± 0.68** 10^9/L
  Neutrophils: 2.71 ± 0.36** 10^9/L
Oleic acid-induced ALI [5]
  other cytokines measured: Cit-H3, INF-γ, IL-10, IL-13, IL-4 and IL-5: no change
Oleic acid-induced ALI [5]; colchicine versus OA control
  serum IL-6 level: trend towards reduced
  serum KC/GRO: non-significantly reduced
  serum TNF-α: non-significantly reduced
Oleic acid-induced ALI [6]; colchicine 1 mg/kg daily gavage, 4 doses before oleic acid 150 mg/kg iv, 4 hours later, 100% FiO2, mean±SEM
  PaO2 (equivalent to PaO2/FiO2): 246±45 mmHg
Oleic acid-induced ALI [6]; [10]
  lung edema (pulmonary edema, total/dry lung weight ratio): reduced
  respiratory acidosis: reduced
Blood leukocytes [7]
  response to LPS stimulation (cell surface CD11b MFI) in leukocytes and granulocytes: restored the normal response
Oleic acid-induced ALI [8]
  lung tissue mRNA expression of 27 genes involved in inflammatory responses and injury: no individual statistically significant effect
